In patent publication US7645903B2, “Use of urea variants as affinity ligands” (GE Healthcare Bio-Sciences AB, priority 2002, dated 2010):
Structures can show the parent of a compound that is named as a salt.

System: human Fab of κ-type
Test: STD-NMR binding test (saturation transfer difference NMR screening)
Parameters: key to NMR signal, conc 1 / NMR signal, conc 2 / NMR signal, conc 3 / NMR signal, Conc 1 (directed library) / NMR signal, Conc 2 (directed library): 0 no; 1 weak; 2 strong signal
Conditions: for NMR signal, Conc 2 (directed library): 100 nM antibody; for NMR signal, Conc 1 (directed library): 500 nM antibody; for NMR signal, conc 1: 500 nM protein; for NMR signal, conc 1 / NMR signal, conc 2: 0.5 mM ligand; for NMR signal, conc 2: 100 nM protein; for interaction with the antibody in NMR screening of directed library: two higher antibody concentrations
Experimental: All NMR experiments were performed at 298 K on a Bruker Avance 500 MHz spectrometer. The 1D saturation transfer difference method (STD-NMR) was used as screening assay (Mayer M. and Meyer B. 1999. Characterisation of Ligand Binding by Saturation Transfer Difference NMR Spectroscopy. Angew. Chem., Int. Ed. 38: 1784-1788). […] The two spectra are recorded in the same experiment in an interleaved fashion. […] It has been shown that the method is capable of detecting ligands with dissociation constants between 10^−3 and 10^−8 M (Mayer M. and Meyer B. 1999. Characterisation of Ligand Binding by Saturation Transfer Difference NMR Spectroscopy. Angew. Chem, Int. Ed. 38: 1784-1788). The strength of the STD-NMR signal depends upon several factors including protein size, offset and duration of the on-resonance irradiation, the dissociation rate constant and the excess of ligand. The STD-NMR method is advantageous in that the detection limits can be tuned for binding by varying the protein concentration while keeping the ligand concentration constant. Under such conditions, at higher protein concentrations the weak to medium binders are detected, whereas at lower protein concentrations only medium binders are detected. For instance, it has been shown before for another enzyme system that both μM and mM binders were detected at a protein concentration of 35 μM whereas only μM binders were detected at protein concentrations of 1 μM and 100 nM (Peng J. W., Lepre C. A., Fejzo J., Abdul-Manan N. and Moore J. M. 2001, Nuclear Magnetic Resonance-Based Approaches for Lead Generation in Drug Discovery, Methods in Enzymology. 338: 202-230). It should be noted that the signal intensity at one specific protein concentration should not be taken as a direct measure of the binding strength. […] On the other hand the signal of the μM binder became even stronger than before (Peng J. W., Lepre C. A., Fejzo J., Abdul-Manan N. and Moore J. M. 2001, Nuclear Magnetic Resonance-Based Approaches for Lead Generation in Drug Discovery, Methods in Enzymology. 338: 202-230).
Here, three different antibody concentrations were used, namely, 0.5 μM, 100 nM and 20 nM. The antibody used was a human Fab of κ-type. In all cases ligands were tested one-by-one. On-resonance irradiation was set at 0 ppm and off-resonance irradiation was set at 40 ppm. Irradiation time in each scan was 2 s and 16K data points were collected with 1024 scans in total. Compounds for testing were dissolved in DMSOd6 to a concentration of 50 mM and 5 μL of the concentrated ligand solution was added to 495 μL buffer solution. The samples thus consisted of 0.5 mM ligand, 20 mM phosphate buffer, 100 mM NaCl and […] in D2O at pD 7.5, uncorrected reading on pH-meter. Compounds were initially tested for binding with 0.5 μM antibody. Interesting ligands were further tested with protein concentrations of 100 or 20 nM. A one-dimensional ^1H-spectrum was acquired first as reference spectrum and subsequently a saturation transfer difference (STD) spectrum was acquired. Each analysis took 60 minutes on the spectrometer.

NMR signal, conc 1	NMR signal, conc 2	SMILES	further results
		COC(=O)[C@H]1CCCN1C(=O)N(C)c1ccc(Cl)c(Cl)c1 (single isomer, unassigned) [AB_0003290, 1-[(3,4-Dichloro-phenyl)-methyl-carbamoyl]-pyrrolidine-2-carboxylic acid methyl ester (R-isomer)]	NMR signal, Conc 2 (directed library): 2; NMR signal, Conc 1 (directed library): 2
0		O=C(c1ccccn1)C(O)c1ccccn1 (stereo not drawn) [AB_0000510, alpha-pyridoin]	
0		CC1=NN(c2cccc(Cl)c2)C(=O)C1 [AB_0000530, 1-(3-chlorophenyl)-3-methyl-2-pyrazolin-5-one]	
0		O=C1C(=O)N(c2ccccc2)C(=O)N1c1ccccc1 [AB_0000540, 1,3-diphenylparabanic acid]	
1	0	Cc1cc(C)nc(SCC(=O)Nc2ccc(F)c(Cl)c2)n1 [AB_0000580, n1-(3-chloro-4-fluorophenyl)-2-[(4,6-dimethylpyrimidin-2-yl)thio]acetamide]	
0		O=C1c2ccncc2C(=O)N1c1ccc(Cl)cc1 [AB_0000610, 2-(4-chlorophenyl)-2,3-dihydro-1h-pyrrolo[3,4-c]pyridine-1,3-dione]	
0		O=C(Cc1ncon1)Nc1ccc(F)c(F)c1F [AB_0000630, n1-(2,3,4-trifluorophenyl)-2-(1,2,4-oxadiazol-3-yl)acetamide]	
2	0	COC(=O)NC(=O)c1nc(-c2ccccc2)c(C)o1 [AB_0000670, methyl n-[(5-methyl-4-phenyl-1,3-oxazol-2-yl)carbonyl]carbamate]	
0		O=C(Cc1ncon1)Nc1ccc(F)cc1F [AB_0000690, n1-(2,4-difluorophenyl)-2-(1,2,4-oxadiazol-3-yl)acetamide]	
0		c1ccc(-c2nnc(-c3ccccn3)nn2)nc1 [AB_0000700, 3,6-di-2-pyridyl-1,2,4,5-tetrazine]	
0		O=C1C(=Cc2ccccc2)C(=O)c2ccccc21 [AB_0000730, 2-benzylidene-1,3-indandione]	
0		O=C(Nc1ccc(F)cc1)Oc1noc(-c2ccccc2)n1 [AB_0000740, 5-phenyl-1,2,4-oxadiazol-3-yl n-(4-fluorophenyl)carbamate]	
0		CC1(C)CC(=O)c2sc(NC(=O)c3cccnc3)nc2C1 [AB_0000750, n-(5,5-dimethyl-7-oxo-4,5,6,7-tetrahydro-benzothiazol-2-yl)-nicotinamide]	
1	0	Sc1nnc(-c2csc(-c3ccccc3)n2)o1 [AB_0000760, 5-(2-phenyl-1,3-thiazol-4-yl)-1,3,4-oxadiazol-2-ylhydrosulfide]	
0		O=C(CC1OC(=O)c2ccccc21)c1ccccn1 (stereo not shown) [AB_0000790, 3-[2-oxo-2-(2-pyridyl)ethyl]-1,3-dihydroisobenzofuran-1-one]	
0		O=C1SC(Br)C(=O)N1c1ccccc1 (stereo not shown) [AB_0000880, 5-bromo-3-phenyl-thiazolidine-2,4-dione]	
0		O=C(c1ccc2ccccc2c1)n1ccnc1 [AB_0000900, 1-(2-naphthoyl)imidazole]	
0		O=C1C=C(Cl)C(=O)N1c1ccccc1 [AB_0000930, 3-chloro-1-phenyl-pyrrole-2,5-dione]	
0		CCCCc1c(O)nc2ccccn2c1=O [AB_0000990, 3-butyl-2-hydroxy-4h-pyrido[1,2-a]pyrimidin-4-one]	
1	0	OC(CNCc1ccccc1)C(F)(F)F (stereo not shown) [AB_0001000, 3-(benzylamino)-1,1,1-trifluoro-2-propanol]	

NMR signal, conc 1	NMR signal, conc 2	SMILES	further results
1	0	Fc1cc(F)cc(Cc2nc(-c3cccs3)no2)c1 [AB_0001020, 5-(3,5-difluorobenzyl)-3-(2-thienyl)-1,2,4-oxadiazole]	
1	0	O=Cc1cccc(C(F)(F)F)c1Cl [AB_0001030, 2-chloro-3-(trifluoromethyl)benzaldehyde]	
2	0	N=c1sccn1CC(=O)c1ccc2ccccc2c1 [AB_0001060, 2-(2-imino-thiazol-3-yl)-1-naphthalen-2-yl-ethanone]	
1	1	CCn1ccnc1CC1COc2ccccc2O1 (stereo not shown) [AB_0001070, imiloxan hydrochloride]	
0		CC1CN=C(SCc2ccccc2)N1.Cl (stereo not shown) [AB_0001080, 2-(benzylthio)-5-methyl-4,5-dihydro-1h-imidazol-3-ium chloride]	
1	0	O=C1C=CC(=O)N1c1cccc(Cl)c1 [AB_0001090, n-(3-chlorophenyl)-maleimide]	
0		CSCCNC(=O)c1nc2ccccc2c(=O)n1N [AB_0001130, 3-amino-n-[2-(methylthio)ethyl]-4-oxo-3,4-dihydroquinazoline-2-carboxamide]	
2	0	Clc1ccc(COn2ccnc2)cc1Cl [AB_0001150, 1-[(3,4-dichlorobenzyl)oxy]-1h-imidazole]	
0		OC(CNCc1ccc(Cl)cc1Cl)C(F)(F)F (stereo not shown) [AB_0001170, 3-[(2,4-dichlorobenzyl)amino]-1,1,1-trifluoro-2-propanol]	
0		O=C(O)c1ccnn(-c2ccccc2)c1=O [AB_0001180, 3-oxo-2-phenyl-2,3-dihydro-4-pyridazinecarboxylic acid]	
2	0	c1ccc(CCn2cc(-c3ccncc3)cn2)cc1 [AB_0001190, 4-[1-(2-phenylethyl)-(1h)-pyrazol-4-yl]pyridine]	
1	0	COC(=O)c1ccc2ccccc2c1O [AB_0001200, methyl 1-hydroxy-2-naphthoate]	
2	0	FC(F)(F)c1cccc(-n2ccnc2)c1 [AB_0001220, 1-(3-trifluoromethylphenyl)imidazole]	
0		O=C(COc1ccc2ccccc2c1)ON1C(=O)CCC1=O [AB_0001230, (2-naphthoxy)acetic acid, n-hydroxysuccinimide ester]	
		COC(=O)CCCN(C)C(=O)N(C)c1ccccc1 [AB_0001251, 4-(1,3-Dimethyl-3-phenyl-ureido)-butyric acid methyl ester]	NMR signal, Conc 2 (directed library): 0; NMR signal, Conc 1 (directed library): 0; interaction with the antibody in NMR screening of directed library: negative result
		COC(=O)CCCN(C)C(=O)N(C)c1ccc(OC)c(F)c1 [AB_0001252, 4-[3-(3-Fluoro-4-methoxy-phenyl)-1,3-dimethyl-ureido]-butyric acid methyl ester]	NMR signal, Conc 2 (directed library): 1; NMR signal, Conc 1 (directed library): 1
		COC(=O)CCCN(C)C(=O)N(C)c1ccc(OC)c(Cl)c1 [AB_0001253, 4-[3-(3-Chloro-4-methoxy-phenyl)-1,3-dimethyl-ureido]-butyric acid methyl ester]	NMR signal, Conc 2 (directed library): 1; NMR signal, Conc 1 (directed library): 2
		COC(=O)CCCN(C)C(=O)N(C)c1ccc(Cl)c(Cl)c1 [AB_0001255, 4-[3-(3,4-Dichloro-phenyl)-1,3-dimethyl-ureido]-butyric acid methyl ester]	NMR signal, Conc 2 (directed library): 2; NMR signal, Conc 1 (directed library): 2; interaction with the antibody in NMR screening of directed library: strongest binding
		COC(=O)CCCNC(=O)N(C)c1ccc(Cl)c(Cl)c1 [AB_0001257, 4-[3-(3,4-Dichloro-phenyl)-3-methyl-ureido]-butyric acid methyl ester]	NMR signal, Conc 2 (directed library): 0; NMR signal, Conc 1 (directed library): 2

SMILES	NMR signal, conc 1	NMR signal, conc 2	further results
CCOC(=O)c1c[nH]c2ccccc2c1=O [AB_0001100, ethyl 4-oxo-1,4-dihydroquinoline-3-carboxylate]	0		
